How the values were obtained:
[1] = target: ZIPK/DAPK3 (Homo sapiens, UniProt O43293); test: biochemical; details: read-out: % enzyme activity, 1 μM; Run 1, Run 2
[2] = target: T1, DCAMKL2 (Homo sapiens, UniProt Q8N568); details: 1 μM; Run 1, Run 2
T1 sequence (Q8N568 1-766): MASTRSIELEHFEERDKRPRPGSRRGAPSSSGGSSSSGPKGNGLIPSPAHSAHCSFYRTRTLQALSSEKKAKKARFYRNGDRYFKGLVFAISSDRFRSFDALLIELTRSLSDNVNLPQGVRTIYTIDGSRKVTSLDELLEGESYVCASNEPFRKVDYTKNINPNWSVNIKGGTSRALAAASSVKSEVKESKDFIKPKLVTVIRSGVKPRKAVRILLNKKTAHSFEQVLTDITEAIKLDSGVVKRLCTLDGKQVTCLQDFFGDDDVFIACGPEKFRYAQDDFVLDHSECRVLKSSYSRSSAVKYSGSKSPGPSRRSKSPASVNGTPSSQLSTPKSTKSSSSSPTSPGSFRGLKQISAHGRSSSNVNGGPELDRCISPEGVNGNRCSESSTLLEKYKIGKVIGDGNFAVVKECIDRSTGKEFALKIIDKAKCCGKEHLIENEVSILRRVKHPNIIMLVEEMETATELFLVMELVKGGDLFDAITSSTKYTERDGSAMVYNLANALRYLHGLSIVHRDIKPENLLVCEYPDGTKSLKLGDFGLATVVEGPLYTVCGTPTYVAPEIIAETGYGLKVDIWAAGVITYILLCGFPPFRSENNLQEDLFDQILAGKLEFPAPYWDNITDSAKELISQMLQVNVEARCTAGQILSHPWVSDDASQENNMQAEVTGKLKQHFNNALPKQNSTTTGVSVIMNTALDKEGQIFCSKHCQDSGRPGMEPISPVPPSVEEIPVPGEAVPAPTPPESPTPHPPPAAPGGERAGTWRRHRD

[3] = target: CAMKK2 (Homo sapiens, UniProt Q96RR4); details: 1 μM; Run 1, Run 2
[4] = target: FGFR1 (Homo sapiens, UniProt P11362); details: 1 μM; Run 1, Run 2
[5] = target: T2, PKCzeta (Homo sapiens, UniProt Q05513); details: 1 μM; Run 1, Run 2
T2 sequence (Q05513 1-592): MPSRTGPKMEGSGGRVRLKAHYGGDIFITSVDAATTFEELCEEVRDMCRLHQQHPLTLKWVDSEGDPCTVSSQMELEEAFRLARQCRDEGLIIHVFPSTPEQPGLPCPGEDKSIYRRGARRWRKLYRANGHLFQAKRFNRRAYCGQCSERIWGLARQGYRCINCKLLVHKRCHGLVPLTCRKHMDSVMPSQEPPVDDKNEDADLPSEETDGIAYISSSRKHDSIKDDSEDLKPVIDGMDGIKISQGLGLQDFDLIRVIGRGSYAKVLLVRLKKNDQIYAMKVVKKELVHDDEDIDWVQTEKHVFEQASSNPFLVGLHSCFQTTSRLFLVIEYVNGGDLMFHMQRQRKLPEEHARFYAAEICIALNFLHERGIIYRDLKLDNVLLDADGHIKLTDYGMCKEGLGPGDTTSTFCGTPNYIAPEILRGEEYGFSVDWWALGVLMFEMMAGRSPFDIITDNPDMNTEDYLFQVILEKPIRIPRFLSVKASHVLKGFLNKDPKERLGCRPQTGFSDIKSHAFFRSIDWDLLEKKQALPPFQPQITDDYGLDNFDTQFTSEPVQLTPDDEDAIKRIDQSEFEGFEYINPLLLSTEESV

[6] = target: SBK1 (Homo sapiens, UniProt Q52WX2); test: biochemical; details: read-out: % enzyme activity, 1 μM; Run 1, Run 2
[7] = target: CDK6/cyclin D3 (Homo sapiens, UniProt Q00534); test: biochemical; details: read-out: % enzyme activity, 1 μM; Run 1, Run 2
[8] = target: STK32C/YANK3 (Homo sapiens, UniProt Q86UX6); details: 1 μM; Run 1, Run 2
[9] = target: T3, MEKK2 (Homo sapiens, UniProt Q9Y2U5); details: 1 μM; Run 1, Run 2
T3 sequence (Q9Y2U5 1-619): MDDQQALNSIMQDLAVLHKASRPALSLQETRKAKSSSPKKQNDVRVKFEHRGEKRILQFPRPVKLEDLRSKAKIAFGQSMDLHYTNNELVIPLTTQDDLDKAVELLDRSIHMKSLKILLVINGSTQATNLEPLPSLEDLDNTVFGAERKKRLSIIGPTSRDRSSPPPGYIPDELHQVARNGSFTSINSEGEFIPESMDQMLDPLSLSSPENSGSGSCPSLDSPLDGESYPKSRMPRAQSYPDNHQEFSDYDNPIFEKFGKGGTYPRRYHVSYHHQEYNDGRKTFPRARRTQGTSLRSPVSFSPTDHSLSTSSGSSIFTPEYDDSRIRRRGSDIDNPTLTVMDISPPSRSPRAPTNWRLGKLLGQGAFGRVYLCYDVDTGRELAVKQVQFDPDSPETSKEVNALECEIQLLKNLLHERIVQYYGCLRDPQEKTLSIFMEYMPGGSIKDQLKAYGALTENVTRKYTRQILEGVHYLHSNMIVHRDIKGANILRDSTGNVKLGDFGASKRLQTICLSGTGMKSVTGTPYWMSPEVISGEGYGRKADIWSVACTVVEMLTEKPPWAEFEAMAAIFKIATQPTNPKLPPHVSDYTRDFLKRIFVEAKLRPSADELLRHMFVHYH

[10] = target: GSK3a (Homo sapiens, UniProt P49840); details: 1 μM; Run 1, Run 2
[11] = target: T4, NEK3 (Homo sapiens, UniProt P51956); details: 1 μM; Run 1, Run 2
T4 sequence (P51956 1-506): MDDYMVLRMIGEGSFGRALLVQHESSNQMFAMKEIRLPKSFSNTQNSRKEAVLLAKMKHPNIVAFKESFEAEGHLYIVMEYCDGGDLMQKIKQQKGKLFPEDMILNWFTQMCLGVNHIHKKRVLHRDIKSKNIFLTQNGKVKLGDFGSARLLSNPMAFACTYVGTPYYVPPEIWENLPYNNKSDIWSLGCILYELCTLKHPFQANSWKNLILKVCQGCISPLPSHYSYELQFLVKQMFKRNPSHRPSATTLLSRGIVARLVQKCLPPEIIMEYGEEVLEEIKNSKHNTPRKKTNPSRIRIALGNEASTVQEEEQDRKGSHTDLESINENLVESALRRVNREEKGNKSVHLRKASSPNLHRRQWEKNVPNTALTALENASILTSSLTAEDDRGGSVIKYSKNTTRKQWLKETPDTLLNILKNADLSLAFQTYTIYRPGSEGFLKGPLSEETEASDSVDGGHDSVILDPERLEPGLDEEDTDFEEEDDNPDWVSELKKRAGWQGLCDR

Sequence of CAMKK2 (Q96RR4 whole entry): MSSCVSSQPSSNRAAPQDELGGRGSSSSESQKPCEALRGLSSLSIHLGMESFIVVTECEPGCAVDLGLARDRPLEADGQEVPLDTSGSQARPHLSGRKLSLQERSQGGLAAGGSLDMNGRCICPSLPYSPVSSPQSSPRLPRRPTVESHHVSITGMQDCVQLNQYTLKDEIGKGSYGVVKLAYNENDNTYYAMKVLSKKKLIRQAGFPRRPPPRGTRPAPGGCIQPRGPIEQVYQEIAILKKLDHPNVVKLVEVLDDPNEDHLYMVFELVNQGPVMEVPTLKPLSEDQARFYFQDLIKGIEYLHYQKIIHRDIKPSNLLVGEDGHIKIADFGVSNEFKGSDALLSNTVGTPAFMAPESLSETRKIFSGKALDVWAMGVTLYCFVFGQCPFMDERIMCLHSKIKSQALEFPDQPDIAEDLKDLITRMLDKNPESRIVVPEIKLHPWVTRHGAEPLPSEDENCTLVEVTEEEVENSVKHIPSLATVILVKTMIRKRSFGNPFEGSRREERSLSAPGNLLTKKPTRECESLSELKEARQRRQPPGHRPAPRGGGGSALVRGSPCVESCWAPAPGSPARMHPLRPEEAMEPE
Sequence of GSK3a (P49840 whole entry): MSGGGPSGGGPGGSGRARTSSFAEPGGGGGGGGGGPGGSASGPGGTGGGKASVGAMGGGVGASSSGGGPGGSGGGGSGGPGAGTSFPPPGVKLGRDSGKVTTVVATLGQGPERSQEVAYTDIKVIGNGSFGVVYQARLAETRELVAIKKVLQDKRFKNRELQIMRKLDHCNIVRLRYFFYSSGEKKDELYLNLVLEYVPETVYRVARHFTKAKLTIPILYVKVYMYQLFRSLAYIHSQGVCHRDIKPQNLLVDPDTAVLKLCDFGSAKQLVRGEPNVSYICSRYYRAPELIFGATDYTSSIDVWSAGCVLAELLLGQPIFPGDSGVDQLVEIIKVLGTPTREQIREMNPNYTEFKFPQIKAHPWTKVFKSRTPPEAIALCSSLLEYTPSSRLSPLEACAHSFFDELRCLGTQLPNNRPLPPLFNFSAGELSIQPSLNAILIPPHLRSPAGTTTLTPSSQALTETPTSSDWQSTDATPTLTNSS
Sequence of ZIPK/DAPK3 (O43293 whole entry): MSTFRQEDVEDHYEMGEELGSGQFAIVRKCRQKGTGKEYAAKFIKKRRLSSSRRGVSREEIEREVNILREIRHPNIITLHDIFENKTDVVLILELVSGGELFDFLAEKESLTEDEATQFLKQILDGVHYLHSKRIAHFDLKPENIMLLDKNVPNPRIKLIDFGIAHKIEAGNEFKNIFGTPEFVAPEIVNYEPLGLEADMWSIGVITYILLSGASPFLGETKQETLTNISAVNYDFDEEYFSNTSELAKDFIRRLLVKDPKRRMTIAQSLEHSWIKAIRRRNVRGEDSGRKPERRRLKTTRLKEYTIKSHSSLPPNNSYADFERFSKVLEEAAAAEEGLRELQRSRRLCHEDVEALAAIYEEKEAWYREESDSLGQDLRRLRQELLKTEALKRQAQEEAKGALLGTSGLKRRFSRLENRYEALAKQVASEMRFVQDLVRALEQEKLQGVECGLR
Sequence of FGFR1 (P11362 22-822): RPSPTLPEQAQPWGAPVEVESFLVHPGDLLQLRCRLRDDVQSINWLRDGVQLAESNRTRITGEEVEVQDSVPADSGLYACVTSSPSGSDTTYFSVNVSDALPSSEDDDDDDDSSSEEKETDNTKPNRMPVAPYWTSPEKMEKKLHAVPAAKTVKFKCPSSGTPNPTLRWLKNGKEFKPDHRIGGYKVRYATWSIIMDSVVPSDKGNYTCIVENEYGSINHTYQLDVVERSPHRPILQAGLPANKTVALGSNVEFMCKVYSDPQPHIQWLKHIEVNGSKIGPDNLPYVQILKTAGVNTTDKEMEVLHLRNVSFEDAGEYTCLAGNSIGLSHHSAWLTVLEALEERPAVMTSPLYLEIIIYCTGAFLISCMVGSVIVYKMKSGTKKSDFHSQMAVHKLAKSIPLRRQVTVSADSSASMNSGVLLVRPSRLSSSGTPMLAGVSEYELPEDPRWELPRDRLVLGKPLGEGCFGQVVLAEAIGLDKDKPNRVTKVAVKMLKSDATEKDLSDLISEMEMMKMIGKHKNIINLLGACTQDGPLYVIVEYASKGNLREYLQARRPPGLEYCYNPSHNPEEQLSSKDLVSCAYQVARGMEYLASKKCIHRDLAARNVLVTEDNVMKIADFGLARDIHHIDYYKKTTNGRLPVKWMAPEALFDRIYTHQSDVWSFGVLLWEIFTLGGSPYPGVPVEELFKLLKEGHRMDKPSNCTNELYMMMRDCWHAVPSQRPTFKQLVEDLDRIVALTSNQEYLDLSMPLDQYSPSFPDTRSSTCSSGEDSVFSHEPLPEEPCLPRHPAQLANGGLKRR
Sequence of STK32C/YANK3 (Q86UX6 whole entry): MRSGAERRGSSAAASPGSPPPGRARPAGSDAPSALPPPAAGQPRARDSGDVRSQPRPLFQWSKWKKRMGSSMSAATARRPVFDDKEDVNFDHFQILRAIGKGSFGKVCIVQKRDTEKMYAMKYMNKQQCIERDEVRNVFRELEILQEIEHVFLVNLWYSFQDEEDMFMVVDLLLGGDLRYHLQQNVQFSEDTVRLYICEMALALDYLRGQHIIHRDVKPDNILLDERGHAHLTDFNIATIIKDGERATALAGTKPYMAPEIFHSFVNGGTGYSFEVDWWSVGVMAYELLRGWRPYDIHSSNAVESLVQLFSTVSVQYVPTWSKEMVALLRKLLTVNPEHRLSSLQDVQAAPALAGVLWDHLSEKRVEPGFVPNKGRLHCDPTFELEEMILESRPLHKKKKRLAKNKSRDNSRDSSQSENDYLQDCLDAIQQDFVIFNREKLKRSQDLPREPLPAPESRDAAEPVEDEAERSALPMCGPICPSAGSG
Sequence of CDK6/cyclin D3 (Q00534 whole entry): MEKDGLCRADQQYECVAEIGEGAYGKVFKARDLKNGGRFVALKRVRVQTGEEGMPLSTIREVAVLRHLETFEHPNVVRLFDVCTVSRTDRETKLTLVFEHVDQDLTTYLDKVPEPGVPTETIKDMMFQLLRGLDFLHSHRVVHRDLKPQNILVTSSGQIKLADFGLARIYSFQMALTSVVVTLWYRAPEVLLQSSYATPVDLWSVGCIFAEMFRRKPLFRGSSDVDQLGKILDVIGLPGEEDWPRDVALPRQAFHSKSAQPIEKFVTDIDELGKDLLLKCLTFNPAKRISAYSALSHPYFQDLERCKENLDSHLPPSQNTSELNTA
Sequence of CDK6/cyclin D3 (P30281 whole entry partner): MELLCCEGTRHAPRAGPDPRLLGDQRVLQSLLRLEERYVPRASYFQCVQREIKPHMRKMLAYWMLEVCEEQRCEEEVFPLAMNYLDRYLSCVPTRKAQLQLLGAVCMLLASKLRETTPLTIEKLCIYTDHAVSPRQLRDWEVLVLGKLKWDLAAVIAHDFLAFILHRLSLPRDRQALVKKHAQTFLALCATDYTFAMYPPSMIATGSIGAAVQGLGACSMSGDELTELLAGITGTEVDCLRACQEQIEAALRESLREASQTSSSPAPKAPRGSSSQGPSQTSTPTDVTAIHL
Sequence of SBK1 (Q52WX2 whole entry): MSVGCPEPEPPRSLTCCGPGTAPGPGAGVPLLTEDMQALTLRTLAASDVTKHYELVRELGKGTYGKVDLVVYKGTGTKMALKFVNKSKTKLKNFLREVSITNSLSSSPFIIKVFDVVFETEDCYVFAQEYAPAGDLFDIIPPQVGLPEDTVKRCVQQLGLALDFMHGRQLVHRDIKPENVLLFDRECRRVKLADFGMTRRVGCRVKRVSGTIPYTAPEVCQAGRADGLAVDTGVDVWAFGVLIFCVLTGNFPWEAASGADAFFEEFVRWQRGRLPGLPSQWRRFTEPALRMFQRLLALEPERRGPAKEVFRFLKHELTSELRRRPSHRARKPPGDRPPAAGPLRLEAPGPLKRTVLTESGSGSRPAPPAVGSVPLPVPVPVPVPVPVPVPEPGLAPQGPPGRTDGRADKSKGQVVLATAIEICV

Structure (SMILES) | remaining activity at 1 µM [1] [%] | % enzyme activity [2] [%] | % enzyme activity [3] [%] | % enzyme activity [4] [%] | % enzyme activity [5] [%] | remaining activity at 1 µM [6] [%] | remaining activity at 1 µM [7] [%] | % enzyme activity [8] [%] | % enzyme activity [9] [%] | % enzyme activity [10] [%] | % enzyme activity [11] [%]
COc1cc(-c2cncc(-c3ccc(N4C[C@@H](C)N(C)[C@@H](C)C4)cc3)c2C)cc(F)c1C(N)=O [Compound 26c, 2-Fluoro-6-methoxy-4-(4-methyl-5-(4-((3R,5S)-3,4,5-trimethylpiperazin-1-yl)phenyl)pyridin-3-yl)benzamide] | 104 | 82.24 | 75.78 | 99.91 | 91.43 | 103 | 103 | 91.96 | 100.62 | 101.44 | 94.54
COc1cc(-c2cncc(-c3ccc(N4CCN(C)CC4)cc3)c2C)cc(F)c1C(N)=O [Compound 26a, 2-Fluoro-6-methoxy-4-(4-methyl-5-(4-(4-methylpiperazin-1-yl)phenyl)pyridin-3-yl)benzamide] | 104 | 62.07 | 70.52 | 96.52 | 90.40 | 94.6 | 86.3 | 85.01 | 95.51 | 100.80 | 86.84

From paper PMC8213057, “Targeting ALK2: An Open Science Approach to Developing Therapeutics for the Treatment of Diffuse Intrinsic Pontine Glioma” (Journal of Medicinal Chemistry, 2020)
